According to the NIST ThermoML archive (doi:10.1016/j.fluid.2010.03.004):

Assay: xn = mol fraction of the nth substance listed
Conditions: Liquid, Vibrating tube method

CCCO [propan-1-ol] + O=C=O
Conditions	mass density [kg/m3]
313.24 K, x2 = 0.202	807
313.24 K, x2 = 0.2572	812.6
313.24 K, x2 = 0.3141	817.6
313.24 K, x2 = 0.4054	823.3
313.24 K, x2 = 0.4405	824.4
313.24 K, x2 = 0.5256	826.3
313.24 K, x2 = 0.5773	825.7
313.24 K, x2 = 0.6774	822
313.24 K, x2 = 0.7843	786.8
363.17 K, x2 = 0.1483	752
363.17 K, x2 = 0.2294	754.9
363.17 K, x2 = 0.3137	754.8
363.17 K, x2 = 0.4007	753.6
363.17 K, x2 = 0.4863	749.7
363.17 K, x2 = 0.6808	680.6
363.17 K, x2 = 0.7308	638.5

CC(C)O [propan-2-ol] + O=C=O
Conditions	mass density [kg/m3]
313.22 K, x2 = 0.1267	783.1
313.22 K, x2 = 0.2066	789.6
313.22 K, x2 = 0.3029	799.3
313.22 K, x2 = 0.3845	803.6
313.22 K, x2 = 0.4501	806.7
313.22 K, x2 = 0.554	805.4
313.22 K, x2 = 0.6472	794.9
313.22 K, x2 = 0.7539	783.1
313.22 K, x2 = 0.902	703.7
333.03 K, x2 = 0.137	761
333.03 K, x2 = 0.2077	762.7
333.03 K, x2 = 0.3001	765
333.03 K, x2 = 0.4023	767.5
333.03 K, x2 = 0.4645	768.5
333.03 K, x2 = 0.6377	770.7
333.03 K, x2 = 0.7582	771.4
333.03 K, x2 = 0.8297	771.4
348.25 K, x2 = 0.0736	741.2
348.25 K, x2 = 0.1432	743.9
348.25 K, x2 = 0.2469	746.5
348.25 K, x2 = 0.3234	748.6
348.25 K, x2 = 0.4042	750.9
348.25 K, x2 = 0.5132	752.9
348.25 K, x2 = 0.5658	753.6
348.25 K, x2 = 0.7177	745.3
348.25 K, x2 = 0.755	646.5
348.25 K, x2 = 0.8241	568
362.92 K, x2 = 0.1016	641.7
362.92 K, x2 = 0.1668	690.6
362.92 K, x2 = 0.2312	726.4
362.92 K, x2 = 0.3079	728.3
362.92 K, x2 = 0.3719	728.7
362.92 K, x2 = 0.4681	726.5
362.92 K, x2 = 0.5653	704.5
362.92 K, x2 = 0.6285	671.6
362.92 K, x2 = 0.7165	590.4
